Measured values taken from ChEMBL document CHEMBL4265946, “Activity of oxygen-versus sulfur-containing analogs of the Flex-Het anticancer agent SHetA2” (Eur J Med Chem, 2018).

Experiments:
[1] = test system: A2780; experiment: Growth inhibition of human A2780 cells after 72 hrs by CellTiter-96 assay; format: functional, cell-based; conditions: A2780, 72 h
[2] = test system: A2780; experiment: Growth inhibition of human A2780 cells at 10 uM after 72 hrs by CellTiter-96 assay relative to control; format: functional; conditions: A2780, 72 h, read-out: GI
[3] = Toxicity in dog; format: organism-based, Canis lupus familiaris; conditions: in vivo
[4] = Toxicity in rat; format: organism-based; conditions: in vivo

Row | Structure (SMILES) | IC50 [1] | inhibition of growth at 10 µM [2] | NOAEL [3] | NOAEL [4]
1 | CC1(C)CC(C)(C)c2cc(N/C(S)=N/c3ccc([N+](=O)[O-])cc3)ccc2O1 | 6.96 µM | 87% |  | 
2 | CC1(C)CCOc2ccc(NC(=S)Nc3ccc([N+](=O)[O-])cc3)cc21 | 6.4 µM | 19% |  | 
3 | CC1(C)CCOc2ccc(NC(=O)Nc3ccc([N+](=O)[O-])cc3)cc21 | 6.7 µM | 74% |  | 
4 | CC1(C)CC(C)(C)c2cc(NC(=S)Nc3ccc(S(N)(=O)=O)cc3)ccc2O1 | 6.9 µM | 32% |  | 
5 | CCC1(CC)CC(CC)(CC)c2cc(NC(=S)Nc3ccc([N+](=O)[O-])cc3)ccc2O1 | 4.6 µM | 94% |  | 
6 | CC1(C)CCOc2ccc(NC(=S)Nc3ccc(C(F)(F)F)cc3)cc21 | 5.5 µM | 28% |  | 
7 | CC1(C)CC(C)(C)c2cc(NC(=S)Nc3ccc(C(F)(F)F)cc3)ccc2O1 | 43.7 µM | 2% |  | 
8 | CCC1(CC)CC(C)(C)Oc2ccc(NC(=S)Nc3ccc(C(F)(F)F)cc3)cc21 | 4.7 µM | 11.8% |  | 
9 | CC1(C)CC(C)(C)c2cc(NC(=O)Nc3ccc(OC(F)(F)F)cc3)ccc2O1 | 4.56 µM | 91.5% |  | 
10 | CC1(C)CC(C)(C)c2cc(NC(=O)Nc3ccc([N+](=O)[O-])cc3)ccc2O1 | 4.1 µM | 79% |  | 
11 | CC1(C)CCOc2ccc(NC(=O)Nc3ccc(C(F)(F)F)cc3)cc21 | 5 µM | 47% |  | 
12 | CC1(C)CCOc2ccc(NC(=S)Nc3ccc(OC(F)(F)F)cc3)cc21 | 4.3 µM | 16% |  | 
13 | CC1(C)CC(C)(C)c2cc(NC(=O)Nc3ccc(C#N)cc3)ccc2O1 | 4.7 µM | 93% |  | 
14 | CCOC(=O)c1ccc(N/C(S)=N/c2ccc3c(c2)C(C)(C)CC(C)(C)O3)cc1 | 4.3 µM | 26% |  | 

These reach a lower IC50 [1]. Values come first.

Row | IC50 [1] | Structure (SMILES) | inhibition of growth at 10 µM [2] | NOAEL [3] | NOAEL [4]
15 | 3.69 µM | CCC1(CC)CC(C)(C)Oc2ccc(NC(=S)Nc3ccc([N+](=O)[O-])cc3)cc21 | 95.7% |  | 
16 | 3.6 µM | CC1(C)CC(C)(C)c2cc(NC(=O)Nc3ccc(C(F)(F)F)cc3)ccc2O1 | 88.4% |  | 
17 | 3.5 µM | CC1(C)CCOc2ccc(NC(=O)Nc3ccc(OC(F)(F)F)cc3)cc21 | 36% |  | 
18 | 3.17 µM | CC1(C)CC(C)(C)c2cc(NC(=S)Nc3ccc([N+](=O)[O-])cc3)ccc2S1 [SHETA-2] | 84.3% | > 1500 mg/kg/day | 500 mg/kg/day
19 | 3 µM | CCC1(CC)CC(CC)(CC)c2cc(NC(=O)Nc3ccc(OC(F)(F)F)cc3)ccc2O1 | 67% |  | 
20 | 2.9 µM | CCC1(CC)CC(C)(C)c2cc(NC(=S)Nc3ccc([N+](=O)[O-])cc3)ccc2O1 | 93.9% |  | 
21 | 2.45 µM | CCC1(CC)CC(C)(C)c2cc(NC(=O)Nc3ccc(C(F)(F)F)cc3)ccc2O1 | 92.4% |  | 
22 | 2.43 µM | CCC1(CC)CC(C)(C)Oc2ccc(NC(=O)Nc3ccc(C(F)(F)F)cc3)cc21 | 93.3% |  | 
23 | 2.17 µM | CCC1(CC)CC(C)(C)c2cc(NC(=O)Nc3ccc([N+](=O)[O-])cc3)ccc2O1 | 93.2% |  | 
24 | 2.09 µM | CCC1(CC)CC(CC)(CC)c2cc(NC(=O)Nc3ccc([N+](=O)[O-])cc3)ccc2O1 | 91.4% |  | 
25 | 2.05 µM | CCC1(CC)CC(C)(C)Oc2ccc(NC(=O)Nc3ccc([N+](=O)[O-])cc3)cc21 | 93.7% |  | 
26 | 2 µM | CCC1(CC)CC(CC)(CC)c2cc(NC(=O)Nc3ccc(C(F)(F)F)cc3)ccc2O1 | 86.2% |  | 
